# Measurements from BindingDB's records for patent US20250066370 (Deutsches Krebsforschungszentrum, 2025).
# Tests used:
# [1] = biological target: Cyclin-K/Cyclin-dependent kinase 12 (Human, UniProt Q9NYV4); experiment: CDK12/CycK High ATP Kinase Assay
# From the text: For the assay 50 nanoL of a 100 fold concentrated solution of the test compound in DMSO was pipetted into either a black low volume 384 well microtiter plate or a black 1536 well microtiter plate (both Greiner Bio-One, Frickenhausen, Germany), 2 microL of a solution of CDK12/CycK in aqueous assay buffer [25 millimol/L HEPES pH 7.5, 20 millimol/L MgCl2, 5 millimol/L β-glycerophosphate, 2 millimol/L EGTA, 1.0 millimol/L dithiothreitol, 0.01% (v/v) Nonidet-P40 (Sigma), 0.01% (w/v) bovine serum albumin] were added and the mixture was incubated for 15 min at 22° C. to allow pre-binding of the test compounds to the enzyme before the start of the kinase reaction. Then the kinase reaction was started by the addition of 3 microL of a solution ATP (3.33 millimol/L=>final conc. in the 5 microL assay volume is 2 millimol/L) and substrate (1.67 micromol/L=>final conc. in the 5 microL assay volume is 1 micromol/L) in assay buffer and the resulting mixture was incubated for a reaction time of 60 min at 22° C. The concentration of CDK12/CycK was adjusted depending of the activity of the enzyme lot and was chosen appropriate to have the assay in the linear range, typical concentrations were about 0.75 nanomol/L. The reaction was stopped by the addition of 3 microL of a solution of TR-FRET detection reagents (125 nanomol/L streptavidine-XL665 [Cisbio Bioassays, Codolet, France] and 0.67 nanomol/L anti-Phospho-c-Myc (Ser 62) (E1J4K)-antibody from Cell Signalling [#13748] and 2 nanomol/L LANCE EU-W1024 labeled anti-rabbit IgG antibody [Perkin-Elmer, product no. 0083]) in an aqueous EDTA-solution (133 millimol/L EDTA, 0.27% (w/v) bovine serum albumin in 66.7 millimol/L HEPES pH 7.5).The resulting mixture was incubated 1 h at 22° C. to allow the formation of complex between the phosphorylated biotinylated peptide and the detection reagents. Subsequently the amount of phosphorylated substrate was evaluated by measurement of the resonance energy transfer from the Eu-chelate to the streptavidine-XL. Therefore, the fluorescence emissions at 620 nm and 665 nm after excitation at 350 nm was measured in a TR-FRET reader, e.g. a Pherastar FS (BMG Labtechnologies, Offenburg, Germany) or a Viewlux (Perkin-Elmer).
# [2] = biological target: Cyclin-dependent kinase 2/G1/S-specific cyclin-E1 (Homo sapiens, UniProt P24941); experiment: CDK2/CycE Kinase Assay
# Protocol: (§1) For the assay 50 nanoL of a 100 fold concentrated solution of the test compound in DMSO was pipetted into a black low volume 384 well microtiter plate or a black 1536 well microtiter plate (both Greiner Bio-One, Frickenhausen, Germany), 2 microL of a solution of CDK2/CycE in aqueous assay buffer [50 millimol/L Tris/HCl PH 8.0, 10 millimol/L MgCl2, 1.0 millimol/L dithiothreitol, 0.1 millimol/L sodium ortho-vanadate, 0.01% (v/v) Nonidet-P40 (Sigma)] were added and the mixture was incubated for 15 min at 22° C. to allow pre-binding of the test compounds to the enzyme before the start of the kinase reaction. Then the kinase reaction was started by the addition of 3 microL of a solution of adenosine-tri-phosphate (ATP, 3.33 millimol/L=>final conc. in the 5 microL assay volume is 2 millimol/L) and substrate (1.25 micromol/L=>final conc. in the 5 microL assay volume is 0.75 micromol/L) in assay buffer and the resulting mixture was incubated for a reaction time of 25 min at 22° C. The concentration of CDK2/CycE was adjusted depending of the activity of the enzyme lot and was chosen appropriate to have the assay in the linear range, typical concentrations were in the range of 10 ng/ml. The reaction was stopped by the addition of 3 microL of a solution of TR-FRET detection reagents (0.333 micromol/L streptavidine-XL665 [Cisbio Bioassays, Codolet, France] and 1.67 nanomol/L anti-RB (pSer807/pSer811)-antibody from BD Pharmingen [#558389] and 2 nanomol/L LANCE EU-W1024 labeled anti-mouse IgG antibody [Perkin-Elmer, product no. AD0077, as an alternative a Terbium-cryptate-labeled anti-mouse IgG antibody from Cisbio Bioassays can be used]) in an aqueous EDTA-solution (167 millimol/L EDTA, 0.2% (w/v) bovine serum albumin in 100 millimol/L HEPES pH 7.5).The resulting mixture was incubated 1 h at 22° C. to allow the formation of complex between the phosphorylated biotinylated peptide and the detection reagents. Subsequently the amount of phosphorylated substrate was evaluated by measurement of the resonance energy transfer from the Eu-chelate to the streptavidine-XL. Therefore, the fluorescence emissions at 620 nm and 665 nm after excitation at 350 nm was measured in a TR-FRET reader, e.g. a Pherastar (BMG Labtechnologies, Offenburg, Germany) or a Viewlux (Perkin-Elmer).
# [3] = biological target: Cyclin-T1/Cyclin-dependent kinase 9 (Homo sapiens, UniProt P50750); experiment: CDK9/CycT1 High ATP Kinase Assay
# Chain of Cyclin-T1/Cyclin-dependent kinase 9 (O60563 whole entry): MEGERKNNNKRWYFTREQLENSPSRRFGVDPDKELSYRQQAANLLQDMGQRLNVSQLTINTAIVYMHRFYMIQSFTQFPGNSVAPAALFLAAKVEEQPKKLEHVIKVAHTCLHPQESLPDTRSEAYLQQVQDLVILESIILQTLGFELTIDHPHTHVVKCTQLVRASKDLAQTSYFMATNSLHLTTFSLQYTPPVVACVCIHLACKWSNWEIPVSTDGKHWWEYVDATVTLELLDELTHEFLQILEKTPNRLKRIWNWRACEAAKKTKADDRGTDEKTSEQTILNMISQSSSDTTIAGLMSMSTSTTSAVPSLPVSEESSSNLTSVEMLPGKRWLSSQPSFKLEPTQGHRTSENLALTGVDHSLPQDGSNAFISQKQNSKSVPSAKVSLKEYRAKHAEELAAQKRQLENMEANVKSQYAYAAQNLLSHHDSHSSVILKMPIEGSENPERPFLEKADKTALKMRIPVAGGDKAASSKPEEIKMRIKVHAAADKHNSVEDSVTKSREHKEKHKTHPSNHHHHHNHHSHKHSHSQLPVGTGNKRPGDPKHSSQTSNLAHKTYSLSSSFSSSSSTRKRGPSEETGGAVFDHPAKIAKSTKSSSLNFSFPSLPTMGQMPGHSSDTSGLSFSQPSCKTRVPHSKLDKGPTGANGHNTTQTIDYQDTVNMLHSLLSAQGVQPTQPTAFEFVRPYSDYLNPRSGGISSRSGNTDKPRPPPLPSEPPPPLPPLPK
# Chain of Cyclin-T1/Cyclin-dependent kinase 9 (P50750 whole entry): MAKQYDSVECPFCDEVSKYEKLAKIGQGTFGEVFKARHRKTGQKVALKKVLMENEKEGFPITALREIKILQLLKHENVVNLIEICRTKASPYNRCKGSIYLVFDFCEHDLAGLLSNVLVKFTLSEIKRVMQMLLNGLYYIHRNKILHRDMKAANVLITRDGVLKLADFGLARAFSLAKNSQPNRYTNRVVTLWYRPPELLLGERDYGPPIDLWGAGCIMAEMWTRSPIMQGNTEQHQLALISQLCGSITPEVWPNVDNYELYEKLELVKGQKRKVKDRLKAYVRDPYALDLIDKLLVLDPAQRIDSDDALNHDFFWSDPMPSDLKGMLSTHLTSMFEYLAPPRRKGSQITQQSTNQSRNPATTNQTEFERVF
# Protocol: as §1, with “into either” for “into”, “CDK9/CycT1” for “CDK2/CycE”, “3.3” for “3.33”, “0.5 microg/ml. […]” for “10 ng/ml. The reaction was stopped by the addition of 3 microL of a solution of TR-FRET detection reagents (0.333 micromol/L streptavidine-XL665 [Cisbio Bioassays, Codolet, France] and 1.67 nanomol/L anti-RB (pSer807/pSer811)-antibody from BD Pharmingen [#558389] and 2 nanomol/L LANCE EU-W1024 labeled anti-mouse IgG antibody [Perkin-Elmer, product no. AD0077, as an alternative a Terbium-cryptate-labeled anti-mouse IgG antibody from Cisbio Bioassays can be used]) in an aqueous EDTA-solution (167 millimol/L EDTA, 0.2% (w/v) bovine serum albumin in 100 millimol/L HEPES pH 7.5).The resulting mixture was incubated 1 h at 22° C. to allow the formation of complex between the phosphorylated biotinylated peptide and the detection reagents.”
# Chain of Cyclin-K/Cyclin-dependent kinase 12 (O75909 whole entry): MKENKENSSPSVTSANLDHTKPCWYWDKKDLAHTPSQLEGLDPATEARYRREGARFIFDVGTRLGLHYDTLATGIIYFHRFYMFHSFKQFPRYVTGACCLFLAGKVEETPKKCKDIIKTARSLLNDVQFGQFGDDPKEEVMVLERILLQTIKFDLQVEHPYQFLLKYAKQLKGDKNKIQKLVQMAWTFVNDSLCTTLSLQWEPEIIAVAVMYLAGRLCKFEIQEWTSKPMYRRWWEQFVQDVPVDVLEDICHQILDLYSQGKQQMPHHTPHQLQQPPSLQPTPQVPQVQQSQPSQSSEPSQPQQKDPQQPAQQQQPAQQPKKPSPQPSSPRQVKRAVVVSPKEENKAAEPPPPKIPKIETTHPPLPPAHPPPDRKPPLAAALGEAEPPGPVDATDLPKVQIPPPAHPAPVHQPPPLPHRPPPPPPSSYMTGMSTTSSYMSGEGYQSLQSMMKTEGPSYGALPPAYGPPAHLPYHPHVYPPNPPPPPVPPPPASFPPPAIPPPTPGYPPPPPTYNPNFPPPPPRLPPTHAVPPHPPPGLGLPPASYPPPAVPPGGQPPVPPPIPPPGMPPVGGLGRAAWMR
# Chain of Cyclin-K/Cyclin-dependent kinase 12 (Q9NYV4 whole entry): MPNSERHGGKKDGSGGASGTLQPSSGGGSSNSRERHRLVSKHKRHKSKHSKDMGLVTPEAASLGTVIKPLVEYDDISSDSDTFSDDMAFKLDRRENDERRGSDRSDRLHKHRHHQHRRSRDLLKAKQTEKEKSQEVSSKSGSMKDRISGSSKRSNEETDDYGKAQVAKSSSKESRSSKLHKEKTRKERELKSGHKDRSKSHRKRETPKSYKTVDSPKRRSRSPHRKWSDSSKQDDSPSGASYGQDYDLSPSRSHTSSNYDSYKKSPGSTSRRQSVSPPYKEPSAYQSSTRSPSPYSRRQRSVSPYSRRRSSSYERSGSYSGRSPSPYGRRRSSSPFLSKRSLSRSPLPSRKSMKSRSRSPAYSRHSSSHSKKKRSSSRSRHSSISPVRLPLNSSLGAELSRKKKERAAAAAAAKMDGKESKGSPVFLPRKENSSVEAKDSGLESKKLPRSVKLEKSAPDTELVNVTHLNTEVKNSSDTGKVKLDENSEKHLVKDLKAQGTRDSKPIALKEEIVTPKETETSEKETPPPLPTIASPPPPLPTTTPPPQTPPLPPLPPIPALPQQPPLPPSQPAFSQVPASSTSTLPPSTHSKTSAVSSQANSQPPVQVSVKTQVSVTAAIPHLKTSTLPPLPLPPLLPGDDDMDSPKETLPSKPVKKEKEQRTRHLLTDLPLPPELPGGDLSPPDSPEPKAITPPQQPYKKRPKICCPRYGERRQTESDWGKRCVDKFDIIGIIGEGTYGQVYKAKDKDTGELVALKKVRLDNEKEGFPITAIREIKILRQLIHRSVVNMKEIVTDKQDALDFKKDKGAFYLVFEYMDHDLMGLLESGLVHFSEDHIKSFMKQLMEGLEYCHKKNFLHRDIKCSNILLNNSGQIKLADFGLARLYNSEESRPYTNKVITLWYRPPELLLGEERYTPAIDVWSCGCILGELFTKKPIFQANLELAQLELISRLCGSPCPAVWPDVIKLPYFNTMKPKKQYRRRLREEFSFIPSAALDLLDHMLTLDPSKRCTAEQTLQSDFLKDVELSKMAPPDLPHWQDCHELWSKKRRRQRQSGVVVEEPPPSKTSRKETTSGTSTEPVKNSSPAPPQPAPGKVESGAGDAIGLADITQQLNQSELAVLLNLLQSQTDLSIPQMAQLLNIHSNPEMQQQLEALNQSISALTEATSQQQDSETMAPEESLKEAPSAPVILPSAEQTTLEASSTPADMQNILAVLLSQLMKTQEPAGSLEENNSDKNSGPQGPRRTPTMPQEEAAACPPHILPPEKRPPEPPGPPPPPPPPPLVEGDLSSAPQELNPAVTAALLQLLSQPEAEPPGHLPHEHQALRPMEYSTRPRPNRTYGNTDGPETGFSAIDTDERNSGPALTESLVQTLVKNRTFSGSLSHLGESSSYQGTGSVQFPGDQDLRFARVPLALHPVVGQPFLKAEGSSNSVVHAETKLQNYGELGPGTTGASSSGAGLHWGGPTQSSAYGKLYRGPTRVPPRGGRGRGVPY
IC50 [1] [nM],IC50 [2] [nM],IC50 [3] [nM],Structure (SMILES)
41.6,> 5710,340,"COc1ccc(-c2nnc(CNc3nc(N4CCOCC4)nn4c(C(F)(F)F)cnc34)[nH]2)cn1 [US20250066370, Example 18]"
12.3,16300,2780,"COc1ccc(-c2cnc(CNc3nc(N4CCOCC4)nn4c(C(F)(F)F)cnc34)[nH]2)cc1 [US20250066370, Example 13]"
5.96,6720,,"FC(F)(F)Oc1ccc(-c2nnc(CNc3nc(N4CCOCC4)nc4c(C(F)(F)F)cnn34)[nH]2)cn1 [US20250066370, Example 17]"
79.1,4050,,"FC(F)(F)c1ccc(-c2nnc(CNc3nc(N4CCOCC4)nc4c(C(F)(F)F)cnn34)[nH]2)cn1 [US20250066370, Example 16]"
15.1,7820,3560,"FC(F)(F)c1ccc(-c2cnc(CNc3nc(N4CCOCC4)nc4c(C(F)(F)F)cnn34)[nH]2)cn1 [US20250066370, Example 24]"
